{
  "source": "patent US6702995B1",
  "about": "“Delivery system” (TheRyte, Ltd., priority 1997, dated 2004)",
  "key": {"HELA cell line": {"system": "HELA cell line", "assay": "Clonogenic cell survival assay, HELA", "assay_type": "cell-based, human", "experimental": "(§1) TAXOL (paclitaxel) is a powerful cytotoxic agent but is very difficult to use because it is almost insoluble in water or blood plasma. For in vivo or in vitro use, it is generally dissolved in dimethyl sulphoxide (DMSO) or in a complex commercial pharmaceutical preparation. […] The TAXOL (paclitaxel) concentration was varied over the range of 1 to 8nM. These carrier solutions were labeled “polymer” series. Similarly, the same range of TAXOL (paclitaxel) solution concentrations was prepared in neat dimethyl sulphoxide as solvent; these carrier solutions were labeled “DMSO” series. Finally, a series of commercially available pharmaceutical preparations was used, which contained TAXOL (paclitaxel) in the concentration range of 1 to 8 nM; these carrier solutions were labeled “commercial” series. […] The four series of solutions were compared for their cytotoxic action by a clonogenic cell survival assay using three human in vitro cell lines, viz., HELA (originally explanted from cancer of the cervix), HRT-18 (originally explanted from […]) and MGHU-1 (originally explanted from a bladder cancer)."}, "HRT-18 cell line": {"system": "HRT-18 cell line", "assay": "Clonogenic cell survival assay, HRT-18", "assay_type": "cell-based, human", "settings": "HRT-18, clonogenic cell survival", "experimental": "as §1"}, "MGHU-1 cell line": {"system": "MGHU-1 cell line", "assay": "Clonogenic cell survival assay, MGHU-1", "assay_type": "cell-based, human", "settings": "MGHU-1, clonogenic cell survival", "experimental": "as §1"}},
  "data": [
    {"smiles": "COc1cc(NS(C)(=O)=O)ccc1Nc1c2ccccc2nc2ccccc12", "note": "[amsacrine]", "values": [
      {"measurement": "cytotoxic action (in words)", "setting": "HELA cell line", "value": "effective"},
      {"measurement": "cytotoxic action (in words)", "setting": "HRT-18 cell line", "value": "effective"},
      {"measurement": "cytotoxic action (in words)", "setting": "MGHU-1 cell line", "value": "effective"}
    ]},
    {"smiles": "C1=Cc2nc1c(-c1ccccc1)c1ccc([nH]1)c(-c1ccccc1)c1nc(c(-c3ccccc3)c3ccc([nH]3)c2-c2ccccc2)C=C1", "note": "[sensitizer, 5,10,15,20 tetrakis phenyl porphyrin]", "values": [
      {"measurement": "cell growth (cell count)", "setting": "cancer cells (Molt 4)", "value": "not inhibited"}
    ]}
  ]
}
